“Also recorded” adds a separate entry of the source.
Tests used:
P. acnes 6919 = assay: Kirby-Bauer disc diffusion antimicrobial susceptibility; type: cell-based; conditions: 100 mM, carrier water
C. albicans = assay: as above; type: cell-based, Candida albicans; conditions: 100 mM, carrier water
[1] = Amount of PCA that can be dissolved; type: physicochemical
Method: For instance the dose used on an open rodent taped stripped skin would be conditioned by the wound's tolerance of the vehicle which in this case would be water, normal saline or like. The amount of PCA for instance that can be dissolved in water is 1.24 grams per 100 ml. In the rodent the effective dose of C-3-G and PCA were expressed in […] (mM) as 25 to 200 mM dose. Conversion factors are necessary to make comparisons to larger doses used in other applications. 78 mM (mmole/L) PCA would be 12.021 g PCA per Liter. Therefore 25 mM/L would be 3.852 grams per liter or […]. The fluid applied was […] or 0.1 milliliter. Therefore, for example, the dose of PCA that was bactericidal on Pseudomonas aeruginosa on taped stripped rodent skin was 0.00038 grams. When treating intact normal human skin as in the Loma Linda Medical School testing, it was shown the 1.24 gram in 100 ml of water would only decrease the number of colonies of Propionibacterium acnes. Note that there was no skin penetration properties to water by this method. The increase of PCA concentration was possible to as much as 17% when in composition of matter was 70% isopropyl alcohol with propylene glycol and essences of peppermint oil. This composition had skin penetration properties. However the amount of liquid applied was no more than one milliliter by cotton swab. Therefore the topical dose on intact human skin was […] (estimated). This is many times that required for traumatized taped stripped skin.
For compositions applied to the skin or a bandage the PCA crystals need to be dissolved in a liquid. […] The use of isopropyl alcohol in the combination was not an obvious choice because isopropyl alcohol alone only is marginally effective in killing bacteria. So even after using isopropyl alcohol to dissolve the PCA, the inventor discovered that even at 10% PCA in isopropyl alcohol, the composition was only marginally effective. […]

[2] = tested on: Pseudomonas Aeruginosa ATCC 700888 biofilm; assay: Single spray on biofilm on glass slides, time study, Example 8; conditions: for log reduction: 30% PCA spray in isopropyl alcohol, vs positive control slides
S. aureus 6538 = assay: Kirby-Bauer disc diffusion antimicrobial susceptibility; type: cell-based; conditions: 100 mM, carrier water; 18-24 hours for aerobes

O=C(O)c1ccc(O)c(O)c1 [PCA, Protocatechuic acid]
effectiveness against P. acnes (growth inhibition) (P. acnes 6919): effective; also recorded: able to kill; also recorded: bactericidal
effectiveness against C. albicans (C. albicans): effective; also recorded: susceptible
concentration possible in solution ([1]; 70% isopropyl alcohol with propylene glycol and essences of peppermint oil): ≤ 17%
amount that can be dissolved in water ([1]; Water): 1.24 grams per 100 ml
concentration achieved when dissolving in water ([1]; Water): ≤ 1.24%
log reduction ([2]; after 30 minutes): 3.3 log
log reduction ([2]; after 60 minutes): 2.2 log
reduction in the number colony forming units ([2]; 30% PCA spray, after 60 minutes): 99.9%
effectiveness against S. aureus 6538 (S. aureus 6538): effective

Source: patent publication US20200222347A1, “ANTIMICROBIALS AND METHODS OF USE THEREOF” (priority 2013, published 2020)
